PubChem BioAssay (NCI)
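Five concentrations, 48 hours, 96-well plates. The concentration for full growth arrest is given as TGI.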

What was measured:
Assay in all cases: DTP human tumour cell line panel, 48 h
786-0 renal = tested on: 786-0 renal
A498 renal = tested on: A498 renal
A549 NSCLC = tested on: A549 NSCLC
ACHN renal = tested on: ACHN renal
BT-549 breast = tested on: BT-549 breast
CAKI-1 renal = tested on: CAKI-1 renal
CCRF-CEM leukemia = tested on: CCRF-CEM leukemia
COLO 205 colon = tested on: COLO 205 colon
DU-145 prostate = tested on: DU-145 prostate
EKVX NSCLC = tested on: EKVX NSCLC
HCC-2998 colon = tested on: HCC-2998 colon
HCT-116 colon = tested on: HCT-116 colon
HCT-15 colon = tested on: HCT-15 colon
HL-60(TB) leukemia = tested on: HL-60(TB) leukemia
HOP-62 NSCLC = tested on: HOP-62 NSCLC
HOP-92 NSCLC = tested on: HOP-92 NSCLC
HS 578T breast = tested on: HS 578T breast
HT29 colon = tested on: HT29 colon
IGROV1 ovarian = tested on: IGROV1 ovarian
K-562 leukemia = tested on: K-562 leukemia
KM12 colon = tested on: KM12 colon
LOX IMVI melanoma = tested on: LOX IMVI melanoma
M14 melanoma = tested on: M14 melanoma
MCF7 breast = tested on: MCF7 breast
MDA-MB-231 breast = tested on: MDA-MB-231 breast
MDA-MB-435 = tested on: MDA-MB-435
MDA-N = tested on: MDA-N
MOLT-4 leukemia = tested on: MOLT-4 leukemia
NCI-H226 lung = tested on: NCI-H226 lung
NCI-H23 lung = tested on: NCI-H23 lung
NCI-H460 lung = tested on: NCI-H460 lung
NCI-H522 lung = tested on: NCI-H522 lung
NCI/ADR-RES ovarian = tested on: NCI/ADR-RES ovarian
OVCAR-3 ovarian = tested on: OVCAR-3 ovarian
OVCAR-4 ovarian = tested on: OVCAR-4 ovarian
OVCAR-5 ovarian = tested on: OVCAR-5 ovarian
OVCAR-8 ovarian = tested on: OVCAR-8 ovarian
PC-3 prostate = tested on: PC-3 prostate
RPMI-8226 leukemia = tested on: RPMI-8226 leukemia
RXF 393 renal = tested on: RXF 393 renal
SF-268 CNS = tested on: SF-268 CNS
SF-295 CNS = tested on: SF-295 CNS
SF-539 CNS = tested on: SF-539 CNS
SK-MEL-2 melanoma = tested on: SK-MEL-2 melanoma
SK-MEL-28 melanoma = tested on: SK-MEL-28 melanoma
SK-MEL-5 melanoma = tested on: SK-MEL-5 melanoma
SK-OV-3 ovarian = tested on: SK-OV-3 ovarian
SN12C renal = tested on: SN12C renal
SNB-19 CNS = tested on: SNB-19 CNS
SNB-75 CNS = tested on: SNB-75 CNS
SR leukemia = tested on: SR leukemia
SW-620 colon = tested on: SW-620 colon
T-47D breast = tested on: T-47D breast
TK-10 renal = tested on: TK-10 renal
U251 CNS = tested on: U251 CNS
UACC-257 melanoma = tested on: UACC-257 melanoma
UACC-62 melanoma = tested on: UACC-62 melanoma
UO-31 renal = tested on: UO-31 renal

Measured: TGI

Cc1ccc(S(=O)(=O)Nc2nc3ccccc3c(=O)n2C2CCCCC2)cc1
> 100 µM: all assays above
